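These data come from cells grown in 96-well plates and exposed to compound for 48 hours at five concentrations. The concentration for 50% growth inhibition is given as GI50.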 Active and inactive are the calls of the source. Rule as the data show it: active = GI50 up to about 1.1 µM and inactive = higher.
Tests used:
Experiment in all cases: growth of human tumour cells (NCI), 48 h
LOX IMVI = tested on: LOX IMVI
NCI-H23 = tested on: NCI-H23
SF-295 = tested on: SF-295
EKVX = tested on: EKVX
U-251 = tested on: U-251
IGROV-1 = tested on: IGROV-1
RPMI-8226 = tested on: RPMI-8226
DLD-1 = tested on: DLD-1
UACC-257 = tested on: UACC-257
SK-MEL-28 = tested on: SK-MEL-28
SW-620 = tested on: SW-620
SR = tested on: SR
HOP-92 = tested on: HOP-92
TK-10 = tested on: TK-10
COLO 205 = tested on: COLO 205
XF498 = tested on: XF498
Malme-3M = tested on: Malme-3M
OVCAR-4 = tested on: OVCAR-4
UO-31 = tested on: UO-31
UACC-62 = tested on: UACC-62
HCT-15 = tested on: HCT-15
SK-OV-3 = tested on: SK-OV-3
CCRF-CEM = tested on: CCRF-CEM
SN12C = tested on: SN12C
HOP-62 = tested on: HOP-62
HCT-116 = tested on: HCT-116
SF-268 = tested on: SF-268
SF-539 = tested on: SF-539
KM-20L2 = tested on: KM-20L2
M19-MEL = tested on: M19-MEL
SK-MEL-5 = tested on: SK-MEL-5
RXF 393 = tested on: RXF 393
HOP-18 = tested on: HOP-18
NCI-H460 = tested on: NCI-H460
DMS-114 = tested on: DMS-114
SNB-75 = tested on: SNB-75
HT-29 = tested on: HT-29
NCI-H226 = tested on: NCI-H226
OVCAR-5 = tested on: OVCAR-5
SNB-19 = tested on: SNB-19
OVCAR-8 = tested on: OVCAR-8
HL-60 = tested on: HL-60
HCC 2998 = tested on: HCC 2998
A498 = tested on: A498
DMS-273 = tested on: DMS-273
LXFL 529 = tested on: LXFL 529
ACHN = tested on: ACHN
SNB-78 = tested on: SNB-78
A549 = tested on: A549
786-0 = tested on: 786-0
KM12 = tested on: KM12
MOLT-4 = tested on: MOLT-4
K562 = tested on: K562
SK-MEL-2 = tested on: SK-MEL-2
M14 = tested on: M14
OVCAR-3 = tested on: OVCAR-3
RXF 631 = tested on: RXF 631

Cc1cc(=O)oc2cc3c(cc12)Oc1ccccc1O3
GI50 (LOX IMVI): 54.6 µM (inactive) | GI50 (NCI-H23): 89.3 µM (inactive) | GI50 (SF-295): 43.5 µM (inactive) | GI50 (EKVX): > 10 µM (inactive) | GI50 (U-251): 45.1 µM (inactive) | GI50 (IGROV-1): > 100 µM (inactive) | GI50 (RPMI-8226): > 100 µM (inactive) | GI50 (DLD-1): > 100 µM (inactive) | GI50 (UACC-257): > 100 µM (inactive) | GI50 (SK-MEL-28): > 100 µM (inactive) | GI50 (SW-620): > 100 µM (inactive) | GI50 (SR): > 100 µM (inactive) | GI50 (HOP-92): > 100 µM (inactive) | GI50 (TK-10): > 100 µM (inactive) | GI50 (COLO 205): > 100 µM (inactive) | GI50 (XF498): > 10 µM (inactive) | GI50 (Malme-3M): > 100 µM (inactive) | GI50 (OVCAR-4): > 100 µM (inactive) | GI50 (UO-31): > 100 µM (inactive) | GI50 (UACC-62): > 100 µM (inactive) | GI50 (HCT-15): > 100 µM | GI50 (SK-OV-3): 99.8 µM (inactive) | GI50 (CCRF-CEM): > 10 µM (inactive) | GI50 (SN12C): > 100 µM (inactive) | GI50 (HOP-62): > 100 µM (inactive) | GI50 (HCT-116): 44.9 µM (inactive) | GI50 (SF-268): 38.3 µM (inactive) | GI50 (SF-539): 18.1 µM (inactive) | GI50 (KM-20L2): > 100 µM (inactive) | GI50 (M19-MEL): > 100 µM (inactive) | GI50 (SK-MEL-5): > 100 µM (inactive) | GI50 (RXF 393): > 100 µM (inactive) | GI50 (HOP-18): > 100 µM (inactive) | GI50 (NCI-H460): 51.9 µM (inactive) | GI50 (DMS-114): > 100 µM (inactive) | GI50 (SNB-75): 21.1 µM (inactive) | GI50 (HT-29): > 100 µM (inactive) | GI50 (NCI-H226): > 100 µM (inactive) | GI50 (OVCAR-5): > 100 µM (inactive) | GI50 (SNB-19): > 100 µM (inactive) | GI50 (OVCAR-8): 42.7 µM (inactive) | GI50 (HL-60): > 10 µM (inactive) | GI50 (HCC 2998): > 10 µM (inactive) | GI50 (A498): > 100 µM (inactive) | GI50 (DMS-273): > 100 µM (inactive) | GI50 (LXFL 529): > 100 µM (inactive) | GI50 (ACHN): > 100 µM (inactive) | GI50 (SNB-78): 53 µM (inactive) | GI50 (A549): > 100 µM (inactive) | GI50 (786-0): > 100 µM (inactive) | GI50 (KM12): > 100 µM (inactive) | GI50 (MOLT-4): > 100 µM (inactive) | GI50 (K562): > 10 µM (inactive) | GI50 (SK-MEL-2): > 100 µM (inactive) | GI50 (M14): > 100 µM (inactive) | GI50 (OVCAR-3): > 100 µM (inactive) | GI50 (RXF 631): > 100 µM (inactive)

Source: ChEMBL document CHEMBL1201862, “PubChem BioAssay data set” (2004)
